Converted amounts (≈) assume the structure as drawn. Where two headings read alike, the source gives them in different places. One block for each compound: values may come before it.
Key:
[1] = set-up: method as in PMID 21739610; details: K/10^9 [M^−2]; host/guest 1:2; cited from earlier work
[2] = set-up: method as in PMID 21739610; details: K/10^6 M^−2; 1:2 host/guest; cited from earlier work
[3] = 1:2 (host/guest) binding constant of COU in γ-CD thioether 2 from solubility measurements
Description: (§1) Because the concentration of the free guest [G]free is determined by two coupled thermodynamic equilibria (Equation 1). The 2-phase solubility equilibrium is expressed by Equation 2 and the equilibrium of complexation by the CD host is formulated in Equation 3. The guest dissolves until the concentration of free guest is equal to the solubility of the guest, [G]0 = [G]free. Consequently, the lower the solubility of the guest in water, the lower the fraction of uncomplexed guests. The lower the concentration of the free guest, the lower the contribution of undesirable and non-specific photodimerization to the total quantum yield, according to Equation 4. Consequently, lowering the aqueous solubility of COU by the addition of salt, taking advantage of the so-called “salting-out effect” [46] appeared to be a plausible way to enhance the reaction selectivity of the syn-HH dimer.
Both effects based on the salt concentration led to a significant reduction in the contribution of the photodimerization of free COU to the total quantum yield Φ in Equation 4. Taking into account the molar fraction of the formation of syn-HH in water [drawing 5] from Table 3 and in the complex [drawing 6] , and assuming the quantum yield for the complex as Φcomplex = 19%, the total molar fraction [drawing 7] was calculated according to Equation 5, which was derived from Equation 4. The concentration of complexed COU, [COU]C, was determined as the increase in the solubility of COU upon the addition of the host. The calculated total quantum yields and molar fractions of the syn-HH isomer, listed in Table 5, are in good agreement with the measured values, listed in Table 4. It also shoes, that the binding constant K, calculated according to the law of mass action for the 1:2 (host/guest) complex, tremendously increases with the salt concentration leading to a strong increase of the complexed portion of COU. In contrast to the previous ANT system, the quantum yield of COU photodimerization increases with the binding const K, because K is much lower for COU than for ANT so that contribution of free COU is not negligible.
Photoreaction procedures: Aqueous solutions of the native CDs or γ-CD thioethers (25 mL, 6.0 mM) were added into glass vials containing excess amounts of the guest molecules. To evaluate the salting-out effect on the photo-product distribution of COU, different amounts of sodium sulfate were added to the vials to obtain the desired final salt concentration (Na2SO4 concentration: 0, 0.5, 1.0, and 1.5 M). Sample solutions were thoroughly degassed using sonication. […] The concentrations of the reactants in the CD solutions were determined from the UV–vis extinction coefficients at the absorption maxima.

[4] = cited from earlier work
[5] = Aqueous solubility of guests and solubilization by γ-CD thioethers; assay type: physicochemical; details: read-out: [COU]0 solubility of COU
Description: as §1
Photoreaction procedures: Aqueous solutions of the native CDs or γ-CD thioethers (25 mL, 6.0 mM) were added into glass vials containing excess amounts of the guest molecules. To evaluate the salting-out effect on the photo-product distribution of COU, different amounts of sodium sulfate were added to the vials to obtain the desired final salt concentration (Na2SO4 concentration: 0, 0.5, 1.0, and 1.5 M). Sample solutions were thoroughly degassed using sonication. The vials were tightly sealed, protected from light, and magnetically stirred at room temperature. After 72 h, the resulting suspensions were filtered through syringe filters. The concentrations of the reactants in the CD solutions were determined from the UV–vis extinction coefficients at the absorption maxima.

SMILES: CC(SC[C@H]1O[C@@H]2O[C@H]3[C@H](O)[C@@H](O)[C@@H](O[C@H]4[C@H](O)[C@@H](O)[C@@H](O[C@H]5[C@H](O)[C@@H](O)[C@@H](O[C@H]6[C@H](O)[C@@H](O)[C@@H](O[C@H]7[C@H](O)[C@@H](O)[C@@H](O[C@H]8[C@H](O)[C@@H](O)[C@@H](O[C@H]9[C@H](O)[C@@H](O)[C@@H](O[C@H]1[C@H](O)[C@H]2O)O[C@@H]9CSC(C)C(=O)O)O[C@@H]8CSC(C)C(=O)O)O[C@@H]7CSC(C)C(=O)O)O[C@@H]6CSC(C)C(=O)O)O[C@@H]5CSC(C)C(=O)O)O[C@@H]4CSC(C)C(=O)O)O[C@@H]3CSC(C)C(=O)O)C(=O)O (some centres unmarked) [Host 4]
1:2 binding constant K of ANT [1]: 3.4 10^9 M^−2

SMILES: O=S(=O)(O)CCSC[C@H]1O[C@@H]2O[C@H]3[C@H](O)[C@@H](O)[C@@H](O[C@H]4[C@H](O)[C@@H](O)[C@@H](O[C@H]5[C@H](O)[C@@H](O)[C@@H](O[C@H]6[C@H](O)[C@@H](O)[C@@H](O[C@H]7[C@H](O)[C@@H](O)[C@@H](O[C@H]8[C@H](O)[C@@H](O)[C@@H](O[C@H]9[C@H](O)[C@@H](O)[C@@H](O[C@H]1[C@H](O)[C@H]2O)O[C@@H]9CSCCS(=O)(=O)O)O[C@@H]8CSCCS(=O)(=O)O)O[C@@H]7CSCCS(=O)(=O)O)O[C@@H]6CSCCS(=O)(=O)O)O[C@@H]5CSCCS(=O)(=O)O)O[C@@H]4CSCCS(=O)(=O)O)O[C@@H]3CSCCS(=O)(=O)O [Host 3]
1:2 binding constant K of ANT [1]: 6.8 10^9 M^−2 | binding constant K of ACE [2]: 37 10^6 M^−2

binding constant K of COU complexed in 2 ([3]; [Na2SO4] 0.0 M, 1:2 host/guest, law of mass action, from solubility measurements): 2 10^3 M^−2 | binding constant K of COU complexed in 2 ([3]; [Na2SO4] 0.5 M): 30 10^3 M^−2 | binding constant K of COU complexed in 2 ([3]; [Na2SO4] 1.0 M): 97 10^3 M^−2 | binding constant K of COU complexed in 2 ([3]; [Na2SO4] 1.5 M): 1000 10^3 M^−2
SMILES: O=C(O)CSC[C@H]1O[C@@H]2O[C@H]3[C@H](O)[C@@H](O)[C@@H](O[C@H]4[C@H](O)[C@@H](O)[C@@H](O[C@H]5[C@H](O)[C@@H](O)[C@@H](O[C@H]6[C@H](O)[C@@H](O)[C@@H](O[C@H]7[C@H](O)[C@@H](O)[C@@H](O[C@H]8[C@H](O)[C@@H](O)[C@@H](O[C@H]9[C@H](O)[C@@H](O)[C@@H](O[C@H]1[C@H](O)[C@H]2O)O[C@@H]9CSCC(=O)O)O[C@@H]8CSCC(=O)O)O[C@@H]7CSCC(=O)O)O[C@@H]6CSCC(=O)O)O[C@@H]5CSCC(=O)O)O[C@@H]4CSCC(=O)O)O[C@@H]3CSCC(=O)O [Host 2]
1:2 binding constant K of ANT [1]: 7.7 10^9 M^−2

SMILES: NCCSC[C@H]1O[C@@H]2O[C@H]3[C@H](O)[C@@H](O)[C@@H](O[C@H]4[C@H](O)[C@@H](O)[C@@H](O[C@H]5[C@H](O)[C@@H](O)[C@@H](O[C@H]6[C@H](O)[C@@H](O)[C@@H](O[C@H]7[C@H](O)[C@@H](O)[C@@H](O[C@H]8[C@H](O)[C@@H](O)[C@@H](O[C@H]9[C@H](O)[C@@H](O)[C@@H](O[C@H]1[C@H](O)[C@H]2O)O[C@@H]9CSCCN)O[C@@H]8CSCCN)O[C@@H]7CSCCN)O[C@@H]6CSCCN)O[C@@H]5CSCCN)O[C@@H]4CSCCN)O[C@@H]3CSCCN [Host 1]
1:2 binding constant K of ANT [1]: 22.8 10^9 M^−2 | highest concentration of ANT achieved, [ANT] ([4]; 6 mM solution of host in water): 0.04 mM

SMILES: COCCOCCOCCSC[C@H]1O[C@@H]2O[C@H]3[C@H](O)[C@@H](O)[C@@H](O[C@H]4[C@H](O)[C@@H](O)[C@@H](O[C@H]5[C@H](O)[C@@H](O)[C@@H](O[C@H]6[C@H](O)[C@@H](O)[C@@H](O[C@H]7[C@H](O)[C@@H](O)[C@@H](O[C@H]8[C@H](O)[C@@H](O)[C@@H](O[C@H]9[C@H](O)[C@@H](O)[C@@H](O[C@H]1[C@H](O)[C@H]2O)O[C@@H]9CSCCOCCOCCOC)O[C@@H]8CSCCOCCOCCOC)O[C@@H]7CSCCOCCOCCOC)O[C@@H]6CSCCOCCOCCOC)O[C@@H]5CSCCOCCOCCOC)O[C@@H]4CSCCOCCOCCOC)O[C@@H]3CSCCOCCOCCOC [Host 7]
1:2 binding constant K of ANT [1]: 7.7 10^9 M^−2

SMILES: O=C(O)CCSC[C@H]1O[C@@H]2O[C@H]3[C@H](O)[C@@H](O)[C@@H](O[C@H]4[C@H](O)[C@@H](O)[C@@H](O[C@H]5[C@H](O)[C@@H](O)[C@@H](O[C@H]6[C@H](O)[C@@H](O)[C@@H](O[C@H]7[C@H](O)[C@@H](O)[C@@H](O[C@H]8[C@H](O)[C@@H](O)[C@@H](O[C@H]9[C@H](O)[C@@H](O)[C@@H](O[C@H]1[C@H](O)[C@H]2O)O[C@@H]9CSCCC(=O)O)O[C@@H]8CSCCC(=O)O)O[C@@H]7CSCCC(=O)O)O[C@@H]6CSCCC(=O)O)O[C@@H]5CSCCC(=O)O)O[C@@H]4CSCCC(=O)O)O[C@@H]3CSCCC(=O)O [Host 6]
1:2 binding constant K of ANT [1]: 6.5 10^9 M^−2 | binding constant K of ACE [2]: 27 10^6 M^−2

SMILES: c1ccc2cc3ccccc3cc2c1 [ANT, anthracene]
solubility of free ANT ([4]; water): 0.0004 mM

solubility at 72 h ([5]; water with Na2SO4, thermodynamic from solid, [Na2SO4] 0.5 M): 8.5 mM (≈ 1240 µg/mL) | solubility at 72 h ([5]; water with Na2SO4, thermodynamic from solid, [Na2SO4] 1.0 M): 4.7 mM (≈ 687 µg/mL) | solubility at 72 h ([5]; water with Na2SO4, thermodynamic from solid, [Na2SO4] 1.5 M): 2.6 mM (≈ 380 µg/mL) | solubility at 72 h ([5]; water, thermodynamic from solid, [Na2SO4] 0.0 M): 15.2 mM (≈ 2220 µg/mL)
SMILES: O=c1ccc2ccccc2o1 [COU, coumarin]
aqueous solubility ([4]; water): 15 mM (≈ 2190 µg/mL)

SMILES: OCC(O)CSC[C@H]1O[C@@H]2O[C@H]3[C@H](O)[C@@H](O)[C@@H](O[C@H]4[C@H](O)[C@@H](O)[C@@H](O[C@H]5[C@H](O)[C@@H](O)[C@@H](O[C@H]6[C@H](O)[C@@H](O)[C@@H](O[C@H]7[C@H](O)[C@@H](O)[C@@H](O[C@H]8[C@H](O)[C@@H](O)[C@@H](O[C@H]9[C@H](O)[C@@H](O)[C@@H](O[C@H]1[C@H](O)[C@H]2O)O[C@@H]9CSCC(O)CO)O[C@@H]8CSCC(O)CO)O[C@@H]7CSCC(O)CO)O[C@@H]6CSCC(O)CO)O[C@@H]5CSCC(O)CO)O[C@@H]4CSCC(O)CO)O[C@@H]3CSCC(O)CO (some centres unmarked) [Host 5]
1:2 binding constant K of ANT [1]: 3.7 10^9 M^−2

— PMC3778407, “Topochemical control of the photodimerization of aromatic compounds by γ-cyclodextrin thioethers in aqueous solution” (Beilstein Journal of Organic Chemistry, 2013)
